In patent publication US8859545B2, “Tetrahydronaphthyridine and tetrahydropyrido[4,3-D]pyrimidine compounds and compositions thereof useful for the treatment of inflammatory and respiratory diseases” (Evotec AG, priority 2005, dated 2014):

System: P2X2/3 chimera (P2X2/3C)
Experiment: Calcium uptake assay (P2X antagonist assay, agonist-induced calcium influx)
Type: cell-based
From the text: Human P2X3 (Accession no. NM_002559), P2X2 (Accession no. NM_170682) and Rat P2X3 (Accession no. NM_031075) and P2X2 (Accession no. NM_053656) are cloned into a mammalian expression vector (e.g., pcDNA5/TO or pcDNA3 Invitrogen). For coexpression of P2X2 and P2X3, the coding regions of both receptors were cloned into a bicistronic vector using methods similar to those described by Kawashima et al., Receptors Channels 5:53-60, 1998. The P2X2/3 chimera clone was created as described by Neelands et al, and then cloned into an expression vector as above. Receptors are expressed in cells (e.g., HEK293 or 1321N1) via transient transfection using standard lipid mediated transfection, or by creation of stable transfectants for each receptor. Cell lines are maintained in DMEM+5% Glutamax, the appropriate level of selective antibiotic, and 10% heat inactivated FBS.
The agonist EC50 is determined at the start of the assay and compound IC50 experiments are run using a set agonist concentration (EC50-90 depending on cell line) as stimulus. The agonists used are αβMeATP, ATP, or other ATP analogs. Compounds may be tested at concentrations ranging from 1 μM to 10 μM. Functional activity of compounds at the P2X receptor is determined by measuring their ability to inhibit agonist-induced calcium influx. Compounds may be tested for antagonist activity against the P2X2/3 chimera, the P2X3 homomer, or the P2X2/3 heteromer. To test for antagonist activity, cells expressing the appropriate receptor are seeded onto 96 or 384 well plates 18-24 hours prior to assay. On the day of the assay, cells are loaded with calcium-sensitive fluorescent dye (e.g., Fluo-4 no wash reagent-Invitrogen cat# F36206, or the BD™ PBX Calcium Assay Kit-BD cat#640175) in Hank's Buffered Salt Solution (HBSS) with up to 10 mM supplemental CaCl2. Plates are incubated at 37° C. and then equilibrated at room temperature. Antagonism of agonist-induced calcium influx is measured using a fluorescent imaging plate reader. The assay comprises two stages: a pre-treatment phase followed by a treatment phase. Compounds may be tested as follows: For the pre-treatment phase, 50 μL of 3× concentration of test compound in HBSS is added to cells containing 100 μL of dye loading media to achieve a final concentration of 1×. For the treatment phase, at a set interval after pre-treatment, 50 μL of 1× test compound plus 4× agonist solution is added to cells. Fluorescence is measured at 0.1-3 second intervals with an excitation wavelength of 494 nm and an emission wavelength of 515 nm. Responses are measured as peak fluorescence after compound-agonist addition minus baseline fluorescence prior to treatment. Percent inhibition is calculated as follows: […]
A calcium uptake assay was performed as described in paragraphs […] above.

[1] = at 3 μM (symbol before the slash)
[2] = at 10 μM (symbol after the slash)

## Cc1ccc(N2CCc3ncnc(NCc4cccc(Cl)c4)c3C2)nc1 [Compound 55]
[1]
  Ca Influx P2X2/3C % Inhibition at 3 μM/10 μM: ++++/ ^ (compound exhibited 75% or greater inhibition at 3 μM)

## Cc1ccc(N2CCc3ncnc(NCc4ccc(OC(F)(F)F)cc4)c3C2)nc1 [Compound 40]
[1]
  Ca Influx P2X2/3C % Inhibition at 3 μM/10 μM: +++/ ^ (compound exhibited 50-75% inhibition at 3 μM)

## Cc1ccc(N2CCc3ncnc(N(C)Cc4cccc(Cl)c4)c3C2)nc1 [Compound 66]
[1]
  Ca Influx P2X2/3C % Inhibition at 3 μM/10 μM: +/ (compound exhibited 0-25% inhibition at 3 μM)

## Cc1ccc(N2CCc3ncnc(NCc4ccc(C(C)C)cc4)c3C2)nc1 [Compound 58]
[1]
  Ca Influx P2X2/3C % Inhibition at 3 μM/10 μM: +/ (compound exhibited 0-25% inhibition at 3 μM)

## Cc1ccc(N2CCc3ncnc(NCc4cccc(C)c4C)c3C2)nc1 [Compound 80]
[1]
  Ca Influx P2X2/3C % Inhibition at 3 μM/10 μM: +/ (compound exhibited 0-25% inhibition at 3 μM)

## Cc1ccc(N2CCc3ncnc(NCCc4ccc(Cl)c(Cl)c4)c3C2)nc1 [Compound 54]
[1]
  Ca Influx P2X2/3C % Inhibition at 3 μM/10 μM: +++/ ^ (compound exhibited 50-75% inhibition at 3 μM)

## COc1ccc(CNc2ncnc3c2CN(c2ccc(C)cn2)CC3)cc1 [Compound 53]
[1]
  Ca Influx P2X2/3C % Inhibition at 3 μM/10 μM: ++++/ ^ (compound exhibited 75% or greater inhibition at 3 μM)

## COc1ccc(CN(C)c2ncnc3c2CN(c2ccc(C)cn2)CC3)cc1 [Compound 68]
[1]
  Ca Influx P2X2/3C % Inhibition at 3 μM/10 μM: +/ (compound exhibited 0-25% inhibition at 3 μM)

## Cc1ccc(N2CCc3ncnc(NCc4ccc(C)cc4C)c3C2)nc1 [Compound 79]
[1]
  Ca Influx P2X2/3C % Inhibition at 3 μM/10 μM: ++/ (compound exhibited 25-50% inhibition at 3 μM)

## Cc1ccc(N2CCc3ncnc(NCc4cc(F)ccc4F)c3C2)nc1 [Compound 71]
[1]
  Ca Influx P2X2/3C % Inhibition at 3 μM/10 μM: +++/ ^ (compound exhibited 50-75% inhibition at 3 μM)

## Cc1ccc(N2CCc3ncnc(NCc4ccc(Cl)c(Cl)c4)c3C2)nc1 [Compound 85]
[1]
  Ca Influx P2X2/3C % Inhibition at 3 μM/10 μM: +/ (compound exhibited 0-25% inhibition at 3 μM)

## Cc1ccc(N2CCc3ncnc(NCCc4ccccc4)c3C2)nc1 [Compound 45]
[1]
  Ca Influx P2X2/3C % Inhibition at 3 μM/10 μM: ++++/ ^ (compound exhibited 75% or greater inhibition at 3 μM)

## Cc1ccc(N2CCc3ncnc(NCC4(O)CCCC(C)(C)C4)c3C2)nc1 (stereo not shown) [Compound 18, 3,3-Dimethyl-1-{[6-(5-methyl-pyridin-2-yl)-5,6,7,8-tetrahydro-pyrido[4,3-d]pyrimidin-4-ylamino]-methyl}-cyclohexanol]
[2]
  Ca Influx P2X2/3C % Inhibition at 3 μM/10 μM: /* (compound exhibited 0-25% inhibition at 10 μM)

## Cc1ccc(N2CCc3ncnc(NCCc4cccc(C(F)(F)F)c4)c3C2)nc1 [Compound 61]
[1]
  Ca Influx P2X2/3C % Inhibition at 3 μM/10 μM: ++++ (compound exhibited 75% or greater inhibition at 3 μM)
[2]
  Ca Influx P2X2/3C % Inhibition at 3 μM/10 μM: **** (compound exhibited 25-50% inhibition at 10 μM)

## Cc1ccc(N2CCc3ncnc(NCCc4ccccc4Cl)c3C2)nc1 [Compound 32]
[1]
  Ca Influx P2X2/3C % Inhibition at 3 μM/10 μM: ++++ (compound exhibited 75% or greater inhibition at 3 μM)
[2]
  Ca Influx P2X2/3C % Inhibition at 3 μM/10 μM: **** (compound exhibited 25-50% inhibition at 10 μM)

## COc1ccc(CCNc2ncnc3c2CN(c2ccc(C)cn2)CC3)cc1 [Compound 35]
[1]
  Ca Influx P2X2/3C % Inhibition at 3 μM/10 μM: ++++/ ^ (compound exhibited 75% or greater inhibition at 3 μM)

## Cc1ccccc1N1CCc2ncnc(Nc3ccc(C(F)(F)F)cc3)c2C1 [Compound 10, N-(4-(Trifluoromethyl)phenyl)-5,6,7,8-tetrahydro-6-o-tolylpyrido[4,3-d]pyrimidin-4-amine]
[2]
  Ca Influx P2X2/3C % Inhibition at 3 μM/10 μM: /* (compound exhibited 0-25% inhibition at 10 μM)

## Cc1ccc(CN(C)c2ncnc3c2CN(c2ccc(C)cn2)CC3)cc1 [Compound 70]
[1]
  Ca Influx P2X2/3C % Inhibition at 3 μM/10 μM: ++/ (compound exhibited 25-50% inhibition at 3 μM)

## Cc1ccc(N2CCc3ncnc(Nc4ccc(C(F)(F)F)cc4)c3C2)cc1 [Compound 12, N-(4-(Trifluoromethyl)phenyl)-5,6,7,8-tetrahydro-6-p-tolylpyrido[4,3-d]pyrimidin-4-amine]
[2]
  Ca Influx P2X2/3C % Inhibition at 3 μM/10 μM: /* (compound exhibited 0-25% inhibition at 10 μM)

## Cc1ccc(N2CCc3ncnc(N(C)Cc4ccc(C(F)(F)F)cc4)c3C2)nc1 [Compound 69]
[1]
  Ca Influx P2X2/3C % Inhibition at 3 μM/10 μM: +/ (compound exhibited 0-25% inhibition at 3 μM)
